Source: patent US20210349099A1, “CANCER BIOMARKERS AND METHODS OF USE THEREOF” (X4 Pharmaceuticals, Inc., priority 2017, published 2021)

Assays:
[1] = tested on: B16-OVA tumor microenvironment; experiment: Flow cytometry of immune cell populations in B16-OVA tumor tissue; format: in vivo, C57BL/6 mice
Method: Single cell suspensions were prepared from tumor tissues by treating with collagenase and analyzing for various immune cell populations using flow cytometry. Cell surface markers included CD3, CD8, Perforin, CD15CD11b (MDSC), and FoxP3 (Treg). […] The enhancement was even greater for combination therapy with anti-PD-1.

[2] = tested on: melanoma tumor gene signatures; experiment: NanoString nCounter gene expression of FFPE melanoma biopsies; format: in vivo, human
Description: FFPE gene expression analysis: For each gene biomarker, RNA was extracted from FFPE slides using Qiagen's AllPrep kit (Cat. 80234) and analyzed using NanoString nCounter platform with the PanCancer Immune probe set. Raw counts were normalized using the geometric mean of 30 housekeeping genes and the normalized data from both panels were merged and analyzed with nSolver software (Version 4.0).
Interferon gene signature was based on Ayers et al (JCI 2017) and calculated in the following manner. For each patient (pt) sample, the geometric mean was calculated from the normalized counts for six genes (IFN-γ, CXCL9, CXCL10, HLA-DRA, IDO1, STAT1) and then the mean was Log 10-transformed to generate the Gene Expression score. […] Gene scores were calculated for each patient sample from the geometric mean of normalized counts for IFN-gamma, CXCL9, CXCL10, HLA-DRA, IDO1, and STAT1. The mean was Log 10-transformed to generate the Gene Expression score.
The tumor inflammatory signature (TIS) was calculated from 18 genes by taking the Log 10 of the geometric mean of the normalized counts across each gene set to generate a “Gene signature score”. See, e.g., Righi E, Kashiwagi S, Yuan J, et al. “CXCL12/CXCR4 Blockade Induces Multimodal Antitumor Effects That Prolong Survival in an Immunocompetent Mouse Model of Ovarian Cancer,” Cancer Res. 2011; 71(16):5522-5534.
Raw counts were normalized using the geometric mean of housekeeping genes. The Interferon-gamma gene signature score was assessed by a procedure essentially as described in Ayers et al. (2017) J. Clin. Invest. 127:2930-2940.
To perform the CTL signature measurement, RNA was extracted from FFPE slides using Qiagen's AllPrep kit and analyzed using the NanoString nCounter platform with the PanCancer Immune probe set. Raw counts were normalized using the geometric mean of housekeeping genes. NanoString nCounter validation is described at Malkov et al. (2009) BMC Research Notes; 2:80; accessed Nov. 2, 2017 at https://bmcresnotes.biomedcentral.com/articles/10.1186/1756-0500-2-80; Waggott et al. (2012) Bioinformatics 28:1546-1548; see also nCounter® Analysis System User Manual (July 2015), published by NanoString Technologies®, Inc., accessed Nov. 2, 2017, at https://www.nanostring.com/application/files/7114/8942/6665/MAN-C0035-05_nCounter Analysis_System_GEN2.pdf.
For each gene biomarker, RNA was extracted from FFPE slides using Qiagen's AllPrep kit (Cat. 80234) and analyzed using NanoString nCounter platform with the PanCancer Immune probe set. Raw counts were normalized using the geometric mean of housekeeping genes, as described above.
Antigen Presentation/Processing Gene Signature was calculated by taking the geometric mean of the normalized counts for eighteen (18) genes (B2M, CD74, CTSL, CTSS, HLA-DMA, HLA-DMB, HLA-DOB, HLA-DPA1, HLA-DPB1, HLA-DQA1, HLA-DQB1, HLA-DRA, HLA-DRB1, HLA-DRB3, PSMB8, PSMB9, TAP1, and TAP2) and then Log 10-transforming the mean to generate the Gene Expression Score.
Tumor Inflammation Signature was calculated by taking the geometric mean of the normalized counts for eighteen (18) genes (CCL5, CD27, CD274, CD276, CD8A, CMKLR1, CXCL9, CXCR6, HLA-DQA1, HLA-DRB1, HLA-E, IDO1, LAG3, NKG7, PDCD1LG2, PSMB10, STAT1, and TIGIT) and then Log 10-transforming the mean to generate the Gene Expression Score.

[3] = pre- vs post-dosing, five patients
[4] = pre- vs post-dosing, patients 2, 3, 5, 8, and 9

## NCCCCN(Cc1nc2ccccc2[nH]1)[C@H]1CCCc2cccnc21 [X4P-001]
[1]
  suppressor cell counts (Tregs and MDSC): substantially decreased
[2]; NanoString nCounter
  CD8A expression: increased
  CD8B expression: increased
  granzyme B expression: increased
[2]; Patient 2, Pre-Dose Score 2.123, Log 10 of geometric mean of 18 genes
  Tumor Inflammation Signature Gene Expression Score, Post-X4P-001 Score: 2.225
[2]; Patient 2, Pre-Dose Score 2.94, Log 10 of geometric mean of 18 genes
  Antigen Presentation/Processing Gene Expression Score, Post-X4P-001 Score: 2.986
[2]; Patient 3, Pre-Dose Score 2.647
  Tumor Inflammation Signature Gene Expression Score, Post-X4P-001 Score: 2.798
[2]; Patient 3, Pre-Dose Score 3.139
  Antigen Presentation/Processing Gene Expression Score, Post-X4P-001 Score: 3.324
[2]; Patient 5, Pre-Dose Score 2.871
  Tumor Inflammation Signature Gene Expression Score, Post-X4P-001 Score: 3.257
[2]; Patient 5, Pre-Dose Score 3.519
  Antigen Presentation/Processing Gene Expression Score, Post-X4P-001 Score: 3.806
[2]; Patient 8, Pre-Dose Score 2.508
  Tumor Inflammation Signature Gene Expression Score, Post-X4P-001 Score: 2.834
[2]; Patient 8, Pre-Dose Score 3.134
  Antigen Presentation/Processing Gene Expression Score, Post-X4P-001 Score: 3.518
[2]; Patient 9, Pre-Dose Score 2.233
  Tumor Inflammation Signature Gene Expression Score, Post-X4P-001 Score: 2.597
[2]; Patient 9, Pre-Dose Score 3.082
  Antigen Presentation/Processing Gene Expression Score, Post-X4P-001 Score: 3.495
[2]; [3]
  cytotoxic T lymphocyte (CTL) gene signature gene expression score: increased for each one of the five patients
  interferon gamma (IFN-γ) gene signature Gene Expression Score: increased for each one of the five patients
[2]; [4]
  Antigen Presentation/Processing Gene Expression Score, change: increased for each patient
  Tumor Inflammation Signature Gene Expression Score, change: increased for each patient
